{
  "source": "BindingDB's records for patent US20250263395",
  "about": "(Monte Rosa Therapeutics, 2025)",
  "data": [
    {"target": "Protein cereblon (Homo sapiens, UniProt Q96SW2)", "sequence (Q96SW2 whole entry)": "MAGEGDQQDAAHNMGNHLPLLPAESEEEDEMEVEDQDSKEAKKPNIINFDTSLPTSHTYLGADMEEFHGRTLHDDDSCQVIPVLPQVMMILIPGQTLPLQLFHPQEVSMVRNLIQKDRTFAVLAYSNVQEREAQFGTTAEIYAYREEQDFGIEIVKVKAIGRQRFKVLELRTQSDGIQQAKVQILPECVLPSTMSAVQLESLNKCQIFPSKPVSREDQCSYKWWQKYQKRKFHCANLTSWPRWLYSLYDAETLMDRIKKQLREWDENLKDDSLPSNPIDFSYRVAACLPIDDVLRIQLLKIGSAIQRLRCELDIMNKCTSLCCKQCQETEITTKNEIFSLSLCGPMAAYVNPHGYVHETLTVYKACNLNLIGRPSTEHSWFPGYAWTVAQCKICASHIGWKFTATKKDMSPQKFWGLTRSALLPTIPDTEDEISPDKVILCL", "assay": "HTRF assay", "description": "Biochemical assays were conducted in Greiner white 384 well HiBase plates (Cat. No 784075-25) in 10 μL total volume. A one pot detection solution of CRBN-DDB1 (2.5 nM), Anti-His Terbium Cryptate Gold (1×, PerkinElmer Cat. #: 61HI2TLB), and Cy5-Thalidomide (100 nM, Tenova Cat.: T52461) was prepared in 20 mM HEPES, 20 mM NaCl, 0.2 mM TCEP, 0.2 mM EDTA, and 0.005% Tween20 was dispensed to each assay plate. Compounds were stored in dry, ambient temperatures at 10 mM. A 10-point, 1:3 dilution series was prepared from 10 mM stock concentrations in Echo-compatible LDV plates. 10 nL of each compound dilution series was dispensed into assays wells using an Echo 650 (Labcyte inc. USA). 10 nL of 10 mM Lenalidomide was transferred into the active-control wells for the assay and 10 nL of DMSO was transferred into the neutral-control wells. The assay was then allowed to incubate for 30 min at ambient temperature after transferring compound. Plate measurements were taken on a Pherastar FSX (BMG Labtech, Germany) using the HTRF Red filter (Ex. 337 nm, em1: 620 nm, em2: 665 nm) (Flashes: 50, Integration time: 60-400 us, Z-height: 10 mm, Ratio-multiplier: 10,000).", "units": {"Ki": "nM"}, "values": [
      {"smiles": "O=C1CCC(c2c(F)cc(N3CC(NC(=O)OCC4CC5(CCC5)C4)C3)cc2F)C(=O)N1", "note": "(stereo not given) [US20250263395, Compound 1]", "Ki": "< 100"},
      {"smiles": "Cc1ccnc(N2CC(OC(=O)NC3CN(c4cc(F)c(C5CCC(=O)NC5=O)c(F)c4)C3)C2)c1", "note": "(stereo not given) [US20250263395, Compound 6]", "Ki": "< 100"},
      {"smiles": "Cc1cccc(N(C)C(=O)N2CC(OC(=O)NC3CN(c4cc(F)c(C5CCC(=O)NC5=O)c(F)c4)C3)C2)c1", "note": "(stereo not given) [US20250263395, Compound 10]", "Ki": "< 100"},
      {"smiles": "O=C1CCC(c2c(F)cc(N3CC(NC(=O)OC4CN(C(=O)N5CCCC5)C4)C3)cc2F)C(=O)N1", "note": "(stereo not given) [US20250263395, Compound 32]", "Ki": "< 100"},
      {"smiles": "Cc1ccc(C)c(N(C)C(=O)C23CC(OC(=O)NC4CN(c5cc(F)c(C6CCC(=O)NC6=O)c(F)c5)C4)(C2)C3)c1", "note": "(stereo not given) [US20250263395, Compound 111]", "Ki": "< 100"}
    ]}
  ]
}
